Test results from ChEMBL document CHEMBL1158746, “Structures and aldose reductase inhibitory effects of bromophenols from the red alga Symphyocladia latiuscula” (J Nat Prod, 2005).
pIC50: −log10 of the molar value.

Biological target: Aldo-keto reductase family 1 member B1 (Homo sapiens, UniProt P15121)
Experiment: Inhibition of human muscle recombinant aldose reductase by spectrophotometry
Parameters: species or system Muscle tissue

SMILES | pIC50
Cc1c(Br)c(O)c(O)c(Br)c1Br | 5.50
O=Cc1c(Br)c(O)c(O)c(Br)c1Br | 6.18
Oc1c(O)c(Br)c(Cc2c(Br)c(O)c(O)c(Br)c2Br)c(Br)c1Br | 6.25
Oc1cc(Br)c(COCc2c(Br)c(O)c(O)c(Br)c2Br)c(Br)c1O | 6.78
Oc1c(Br)cc(Cc2c(Br)c(O)c(O)c(Br)c2Br)c(Br)c1O | 6.20
